Experimental data: US9226499B2, “Protected antimicrobial compounds for high temperature applications” (Dow Global Technologies LLC, priority 2010, dated 2016)

Legend:
[1] = Analysis of glutaraldehyde release after heat-aging; format: physicochemical; settings: sterile deionized water, molar equivalent of 2000 ppm glutaraldehyde; initial and heat-aged at 55° C. for 2 h or 24 h
Experimental: Samples of the IPHA-adduct are analyzed for glutaraldehyde content. Samples are prepared in sterile deionized water at the molar equivalent of 2000 ppm glutaraldehyde. A standard of 500 ppm glutaraldehyde is also prepared. An initial measurement is taken just after sample preparation. Samples are then heat-aged at 55° C. for 2 h or 24 h and analyzed again. Glutaraldehyde concentration is measured directly via GC and after pre-column derivatization by HPLC.

T. thermophilus = experiment: Biocidal efficacy against thermophilic bacteria at 70° C., dilution to extinction; format: cell-based; settings: equivalent of 100 ppm glutaraldehyde, after 5 days with re-challenging
Experimental: b. Thermophilic Bacteria. A 48-72 hour old culture of T. thermophilus is pelleted by centrifuging at 2000 g and the pellet resuspended in 10 times the culture volume of buffer (PBS or carbonate-buffered synthetic freshwater). The suspension is distributed into 10 mL aliquots in glass screw-cap tubes. Each tube is then treated with glutaraldehyde or an adduct and incubated at 70° C. At indicated timepoints, cell density in each tube is measured via dilution to extinction by serially diluting a sample and plating dilutions on solid media.

Row | Glutaraldehyde concentration after pre-column derivatization by HPLC [1] | Glutaraldehyde concentration measured directly via GC [1] | Compound | Control of bacterial levels after 5 days (T. thermophilus)
1 | low levels of glutaraldehyde | No glutaraldehyde is detected | CC(C)/[N+]([O-])=C/CCC/C=[N+](\[O-])C(C)C [IPHA-adduct, N,N′-(pentane-1,5-diylidene)bis(propan-2-amineoxide)] | –
2 | – | – | O=CCCCC=O [glutaraldehyde] | fails to control bacterial levels
